Source: patent publication USRE40086E1, “Method for treating bacterial infection with novel 7-substituted-9-substituted amino 6-demethyl-6-deoxytetracyclines” (Wyeth Holdings Corporation, priority 1991, dated 2008)
In brackets after ≈: the same amount, converted by molar mass.

Key:
Test in all cases: MIC, agar dilution
Assay type in all cases: cell-based
[1] = system: S. aureus UBMS 88-5 (tetM); details: S. aureus UBMS 88-5 (tetM)
[2] = system: E. faecalis 12201; details: E. faecalis 12201
[3] = system: S. aureus Smith (Sensitive); details: S. aureus Smith (Sensitive)
[4] = system: S. aureus UBMS 90-2 (tetM); details: S. aureus UBMS 90-2 (tetM)
[5] = system: E. faecalis ATCC 29212; details: E. faecalis ATCC 29212
[6] = system: E. coli UBMS 88-2 (Sensitive); details: E. coli UBMS 88-2 (Sensitive)
[7] = system: E. coli UBMS 89-1 (tetM); details: E. coli UBMS 89-1 (tetM)
[8] = system: S. aureus ATCC 29213 (Sensitive); details: S. aureus ATCC 29213 (Sensitive)
[9] = system: S. aureus UBMS 88-4 (Sensitive); details: S. aureus UBMS 88-4 (Sensitive)
[10] = system: S. aureus UBMS 90-3 (Sensitive); details: S. aureus UBMS 90-3 (Sensitive)
[11] = system: E. coli UBMS 89-2 (Sensitive); details: E. coli UBMS 89-2 (Sensitive)
[12] = system: S. aureus UBMS 90-1 (tetM); details: S. aureus UBMS 90-1 (tetM)
[13] = system: S. aureus UBMS 88-7 (tetK); details: S. aureus UBMS 88-7 (tetK)
[14] = system: E. coli UBMS 88-1 (tetB); details: E. coli UBMS 88-1 (tetB)
[15] = system: S. aureus IVES 1983 (meth. resistant); details: S. aureus IVES 1983 (meth. resistant)
[16] = system: E. coli ATCC 25922; details: E. coli ATCC 25922
[17] = system: S. aureus IVES 2943 (meth. resistant); details: S. aureus IVES 2943 (meth. resistant)
[18] = system: S. haemolyticus AVAH 88-3; details: S. haemolyticus AVAH 88-3

| Molecule | MIC [1] [µg/mL] | MIC [2] [µg/mL] | MIC [3] [µg/mL] | MIC [4] [µg/mL] | MIC [5] [µg/mL] | MIC [6] [µg/mL] | MIC [7] [µg/mL] | MIC [8] | MIC [9] [µg/mL] | MIC [10] [µg/mL] | MIC [11] | MIC [12] [µg/mL] | MIC [13] [µg/mL] | MIC [14] [µg/mL] | MIC [15] [µg/mL] | MIC [16] | MIC [17] [µg/mL] | MIC [18] [µg/mL] |
| --- | --- | --- | --- | --- | --- | --- | --- | --- | --- | --- | --- | --- | --- | --- | --- | --- | --- | --- |
| CN(C)c1cc(N(C)C)c2c(c1O)C(=O)C1=C(O)C3(O)C(=O)C(C(N)=O)=C(O)C(N(C)C)C3CC1C2 (stereo not drawn) [C, 7-(Dimethylamino)-9-(dimethylamino)-6-demethyl-6-deoxytetracycline] | 0.12 (≈ 0.24 µM) | 0.5 (≈ 0.999 µM) | 0.03 (≈ 0.0599 µM) | 0.12 (≈ 0.24 µM) | 0.06 (≈ 0.12 µM) | 0.25 (≈ 0.499 µM) | 1 (≈ 2 µM) | ≦0.015 μg/ml | 0.03 (≈ 0.0599 µM) | 0.03 (≈ 0.0599 µM) | 0.5 µg/mL (≈ 0.999 µM) | 0.5 (≈ 0.999 µM) | 0.25 (≈ 0.499 µM) | 16 (≈ 32 µM) | 1 (≈ 2 µM) | 0.25 µg/mL (≈ 0.499 µM) | 1 (≈ 2 µM) | 0.12 (≈ 0.24 µM) |
| CCN(CC)c1cc(NC(C)=O)c(O)c2c1C[C@H]1C[C@H]3[C@H](N(C)C)C(O)=C(C(N)=O)C(=O)[C@@]3(O)C(O)=C1C2=O.O=S(=O)(O)O.O=S(=O)(O)O [Compound E, 9-(Acetylamino)-7-(diethylamino)-6-demethyl-6-deoxytetracycline disulfate] | 4 | 16 | 0.5 | 2 | 2.0 | >32 | 32 | ≦0.015 μg/ml | 0.5 | 0.5 | >32 µg/mL | 8 | 4 | >32 | 16 | 32 µg/mL | 8 | 8 |
| CN(C)c1cc(NC(=O)COCc2ccccc2)c(O)c2c1CC1CC3C(N(C)C)C(O)=C(C(N)=O)C(=O)C3(O)C(O)=C1C2=O (stereo not drawn) [J, 7-(Dimethylamino)-9-([(phenylmethoxy)acetyl)amino]-6-demethyl-6-deoxytetracycline] | 4 (≈ 6.44 µM) | 2 (≈ 3.22 µM) | 0.5 (≈ 0.806 µM) | 2 (≈ 3.22 µM) | 4 (≈ 6.44 µM) | >32 | >32 | 0.06 µg/mL (≈ 0.0967 µM) | 2 (≈ 3.22 µM) | 0.5 (≈ 0.806 µM) | >32 µg/mL | 4 (≈ 6.44 µM) | 2 (≈ 3.22 µM) | >32 | 4 (≈ 6.44 µM) | 32 µg/mL (≈ 51.6 µM) | 4 (≈ 6.44 µM) | 4 (≈ 6.44 µM) |
| CCN(CC)c1cc(NC(C)=O)c(O)c2c1CC1CC3C(N(C)C)C(O)=C(C(N)=O)C(=O)C3(O)C(O)=C1C2=O (stereo not drawn) [F, 9-(Acetylamino)-7-(diethylamino)-6-demethyl-6-deoxytetracycline] | 0.5 (≈ 0.922 µM) | 4 (≈ 7.37 µM) | 0.12 (≈ 0.221 µM) | 0.5 (≈ 0.922 µM) | 0.25 (≈ 0.461 µM) | 32 (≈ 59 µM) | 4 (≈ 7.37 µM) | ≦0.015 μg/ml | 0.25 (≈ 0.461 µM) | 0.12 (≈ 0.221 µM) | 32 µg/mL (≈ 59 µM) | 2 (≈ 3.69 µM) | 2 (≈ 3.69 µM) | >32 | 4 (≈ 7.37 µM) | 4 µg/mL (≈ 7.37 µM) | 2 (≈ 3.69 µM) | 2 (≈ 3.69 µM) |
| [7S-(7α,10aα) ]-C(9-(Aminocarbonyl)-7-(dimethylamino)-5,5a,6,6a,7,10,10a,12-octahydro-1,8,10a,11-tetrahydroxy-10,12-dioxo-2-naphthacenyl]amino]oxoacetic acid ethyl ester | 32 | 32 | 2 | 32 | 32 | >32 | >32 | 0.25 µg/mL | 2 | 1 | >32 µg/mL | >32 | 8 | >32 | >32 | 32 µg/mL | 32 | 4 |
| CN(C)c1ccc(C(=O)Nc2cc(N(C)C)c3c(c2O)C(=O)C2=C(O)[C@]4(O)C(=O)C(C(N)=O)=C(O)[C@@H](N(C)C)[C@@H]4C[C@@H]2C3)cc1 [W, 7-(Dimethylamino)-9-[[(4-dimethylamino)benzoyl)amino)-6-demethyl-6-deoxytetracycline] | 32 (≈ 51.6 µM) | 16 (≈ 25.8 µM) | 4 (≈ 6.45 µM) | 8 (≈ 12.9 µM) | 8 (≈ 12.9 µM) | >32 | >32 | 2 µg/mL (≈ 3.23 µM) | 8 (≈ 12.9 µM) | 8 (≈ 12.9 µM) | >32 µg/mL | 16 (≈ 25.8 µM) | 16 (≈ 25.8 µM) | >32 | 8 (≈ 12.9 µM) | >32 µg/mL | 8 (≈ 12.9 µM) | 16 (≈ 25.8 µM) |
| CN(C)c1cc(NC(=O)c2ccco2)c(O)c2c1CC1CC3C(N(C)C)C(O)=C(C(N)=O)C(=O)C3(O)C(O)=C1C2=O (stereo not drawn) [Y, 7-(Dimethylamino)-9-((2-furanylcarbonyl)amino)-6-demethyl-6-deoxytetracycline] | 16 (≈ 28.2 µM) | 32 (≈ 56.5 µM) | 2 (≈ 3.53 µM) | 8 (≈ 14.1 µM) | 8 (≈ 14.1 µM) | >32 | >32 | 0.5 µg/mL (≈ 0.883 µM) | 4 (≈ 7.06 µM) | 2 (≈ 3.53 µM) | >32 µg/mL | 32 (≈ 56.5 µM) | >32 | >32 | >32 | >32 µg/mL | >32 | >32 |
| CN(C)c1cc(NC(=O)CO)c(O)c2c1CC1CC3C(N(C)C)C(O)=C(C(N)=O)C(=O)C3(O)C(O)=C1C2=O (stereo not drawn) [L, 7-(Dimethylamino)-9-[(hydroxyacetyl)amino]-6-demethyl-6-deoxytetracycline] | 4 (≈ 7.54 µM) | 4 (≈ 7.54 µM) | 0.5 (≈ 0.942 µM) | 2 (≈ 3.77 µM) | 2 (≈ 3.77 µM) | >32 | >32 | 0.5 µg/mL (≈ 0.942 µM) | 4 (≈ 7.54 µM) | 1 (≈ 1.88 µM) | >32 µg/mL | 8 (≈ 15.1 µM) | >32 | >32 | >32 | 32 µg/mL (≈ 60.3 µM) | >32 | 16 (≈ 30.2 µM) |
| CN(C)c1cc(NC(=O)c2ccc(N)cc2)c(O)c2c1CC1CC3C(N(C)C)C(O)=C(C(N)=O)C(=O)C3(O)C(O)=C1C2=O.O=S(=O)(O)O (stereo not drawn) [X, 9-[(4-Aminobenzoyl)amino)-7-(dimethylamino)-6-demethyl-6-deoxytetracycline sulfate] | 8 | 32 | 1 | 8 | 8 | >32 | >32 | 0.5 µg/mL | 1 | 1 | >32 µg/mL | 16 | 8 | >32 | >32 | >32 µg/mL | >32 | 8 |
| CN(C)c1cc(NC(=O)c2cccc(C(F)(F)F)c2)c(O)c2c1CC1CC3C(N(C)C)C(O)=C(C(N)=O)C(=O)C3(O)C(O)=C1C2=O (stereo not drawn) [U, 7-(Dimethylamino)-9-[[3-(trifluoromethyl)benzoyl)amino]-6-demethyl-6-deoxytetracycline] | 1 (≈ 1.55 µM) | 1 (≈ 1.55 µM) | 1 (≈ 1.55 µM) | 1 (≈ 1.55 µM) | 1 (≈ 1.55 µM) | >32 | >32 | 0.5 µg/mL (≈ 0.776 µM) | 0.5 (≈ 0.776 µM) | 0.5 (≈ 0.776 µM) | ≧32 μg/ml | 1 (≈ 1.55 µM) | 1 (≈ 1.55 µM) | >32 | 1 (≈ 1.55 µM) | ≧32 μg/ml | 1 (≈ 1.55 µM) | 1 (≈ 1.55 µM) |
